Test results reported in PubChem BioAssay AID256 (DTP/NCI, 2004).
“And” between values parts separate entries of the source, which are not always exact repeats. Equal entries are not always repeated. Toxic doses and inconclusive results are not listed.

Tested on: CD2F1 mice, L1210 leukemia ip, survival T/C
Assay: NCI In Vivo Anticancer Drug Screen. Data for tumor model L1210 Leukemia (intraperitoneal) in CD2F1 (CDF1) mice
Settings: higher = longer survival
How it was run: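 Read-out first: treated-group measurement over vehicle-control measurement, expressed as a ratio. Animals bore a transplanted tumor line and were dosed with compound or vehicle.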

[1] = endpoint: mean survival time, dose: 25.0 mg/kg/injection, schedule: Q04DX002 (ip), vehicle: saline with Tween-80
[2] = endpoint: mean survival time, dose: 50.0 mg/kg/injection, schedule: Q04DX002 (ip), vehicle: saline with Tween-80
[3] = endpoint: mean survival time, dose: 100.0 mg/kg/injection, schedule: Q04DX002 (ip), vehicle: saline with Tween-80
[4] = endpoint: mean survival time, dose: 100.0 mg/kg/injection, schedule: Q04DX003 (ip), vehicle: saline
[5] = endpoint: mean survival time, dose: 200.0 mg/kg/injection, schedule: Q04DX003 (ip), vehicle: saline
[6] = endpoint: mean survival time, dose: 400.0 mg/kg/injection, schedule: Q04DX003 (ip), vehicle: saline
[7] = endpoint: mean survival time, dose: 25.0 mg/kg/injection, schedule: Q01DX009 (ip), vehicle: saline with Tween-80
[8] = endpoint: mean survival time, dose: 50.0 mg/kg/injection, schedule: Q01DX009 (ip), vehicle: saline with Tween-80
[9] = endpoint: mean survival time, dose: 100.0 mg/kg/injection, schedule: Q04DX003 (ip), vehicle: saline with Tween-80
[10] = endpoint: mean survival time, dose: 100.0 mg/kg/injection, schedule: Q01DX001 (ip), vehicle: saline
[11] = endpoint: mean survival time, dose: 200.0 mg/kg/injection, schedule: Q01DX001 (ip), vehicle: saline
[12] = endpoint: mean survival time, dose: 400.0 mg/kg/injection, schedule: Q01DX001 (ip), vehicle: saline
[13] = endpoint: mean survival time, dose: 100.0 mg/kg/injection, schedule: Q01DX009 (ip), vehicle: saline with Tween-80
[14] = endpoint: mean survival time, dose: 200.0 mg/kg/injection, schedule: Q01DX009 (ip), vehicle: saline with Tween-80
[15] = endpoint: mean survival time, dose: 400.0 mg/kg/injection, schedule: Q01DX009 (ip), vehicle: saline with Tween-80
[16] = endpoint: mean survival time, dose: 100.0 mg/kg/injection, schedule: Q04DX002 (ip), vehicle: other
[17] = endpoint: mean survival time, dose: 200.0 mg/kg/injection, schedule: Q04DX002 (ip), vehicle: other
[18] = endpoint: mean survival time, dose: 400.0 mg/kg/injection, schedule: Q04DX002 (ip), vehicle: other
[19] = endpoint: mean survival time, dose: 6.25 mg/kg/injection, schedule: Q01DX009 (ip), vehicle: saline with Tween-80
[20] = endpoint: mean survival time, dose: 12.5 mg/kg/injection, schedule: Q01DX009 (ip), vehicle: saline with Tween-80
[21] = endpoint: mean survival time, dose: 100.0 mg/kg/injection, schedule: Q01DX001 (ip), vehicle: saline with Tween-80
[22] = endpoint: mean survival time, dose: 200.0 mg/kg/injection, schedule: Q01DX001 (ip), vehicle: saline with Tween-80
[23] = endpoint: mean survival time, dose: 400.0 mg/kg/injection, schedule: Q01DX001 (ip), vehicle: saline with Tween-80

Compound: O=C1C2=C(C(=O)C3=C1C1CCC3C1)C1CCC2C1
- T/C [1]: 105 % of control
- T/C [2]: 101 % of control
- T/C [3]: 108 % of control

Compound: CC(C)n1c(=S)[nH]c2ccccc2c1=O
- T/C (endpoint: mean survival time, dose: 100.0 mg/kg/injection, schedule: Q01DX009 (ip), vehicle: saline): 97 % of control
- T/C (endpoint: mean survival time, dose: 200.0 mg/kg/injection, schedule: Q01DX009 (ip), vehicle: saline): 100 % of control
- T/C (endpoint: mean survival time, dose: 400.0 mg/kg/injection, schedule: Q01DX009 (ip), vehicle: saline): 100 % of control

Compound: CC(C)(C#N)OC(=O)Nc1cccc(Cl)c1
- T/C [3]: 93 % of control
- T/C (endpoint: mean survival time, dose: 200.0 mg/kg/injection, schedule: Q04DX002 (ip), vehicle: saline with Tween-80): 90 % of control
- T/C (endpoint: mean survival time, dose: 400.0 mg/kg/injection, schedule: Q04DX002 (ip), vehicle: saline with Tween-80): 86 % of control

Compound: O=C(O)C(O)C(O)C(O)C(O)CO.[NH-]C1CCCCC1[NH-].[Pt+2] (stereo not drawn)
- T/C (endpoint: mean survival time, dose: 6.25 mg/kg/injection, schedule: Q04DX003 (ip), vehicle: saline): 150 % of control and 290 % of control
- T/C (endpoint: mean survival time, dose: 12.5 mg/kg/injection, schedule: Q04DX003 (ip), vehicle: saline): 230 % of control and 277 % of control
- T/C (endpoint: mean survival time, dose: 25.0 mg/kg/injection, schedule: Q04DX003 (ip), vehicle: saline): 244 % of control and 314 % of control

Compound: COc1ccc(/C=C2/C=C(c3ccccc3)OC2=O)cc1
- T/C [4]: 98 % of control
- T/C [5]: 101 % of control
- T/C [6]: 98 % of control

Compound: C[n+]1cccc(C(=S)[S-])c1
- T/C [7]: 102 % of control
- T/C [8]: 101 % of control
- T/C [9]: 101 % of control

Compound: O=C(O)CC(C(=O)O)=C(c1ccccc1)c1ccccc1
- T/C [10]: 98 % of control
- T/C [11]: 95 % of control
- T/C [12]: 101 % of control

Compound: COC(=O)C1CCC(C(=O)O)CC1 (stereo not drawn)
- T/C [13]: 92 % of control
- T/C [9]: 101 % of control
- T/C [14]: 94 % of control
- T/C (endpoint: mean survival time, dose: 200.0 mg/kg/injection, schedule: Q04DX003 (ip), vehicle: saline with Tween-80): 97 % of control
- T/C [15]: 89 % of control
- T/C (endpoint: mean survival time, dose: 400.0 mg/kg/injection, schedule: Q04DX003 (ip), vehicle: saline with Tween-80): 95 % of control

Compound: CCC(=O)OCCNc1ccc([N+](=O)[O-])cc1[N+](=O)[O-]
- T/C [16]: 106 % of control
- T/C [17]: 109 % of control
- T/C [18]: 91 % of control

Compound: CC(=O)Oc1ccc2ccccc2c1-c1c(OC(C)=O)ccc2ccccc12
- T/C [1]: 101 % of control
- T/C [2]: 101 % of control
- T/C [3]: 101 % of control

Compound: CN(C)CCCNC1=C(Cl)C(=O)C(NCCCN(C)C)=C(Cl)C1=O
- T/C (endpoint: median survival time, dose: 6.25 mg/kg/injection, schedule: Q01DX009 (ip), vehicle: Klucel (hydroxypropylcellulose) (HPC)): 97 % of control
- T/C (endpoint: median survival time, dose: 12.5 mg/kg/injection, schedule: Q01DX009 (ip), vehicle: Klucel (hydroxypropylcellulose) (HPC)): 94 % of control
- T/C (endpoint: median survival time, dose: 25.0 mg/kg/injection, schedule: Q01DX009 (ip), vehicle: Klucel (hydroxypropylcellulose) (HPC)): 96 % of control
- T/C (endpoint: median survival time, dose: 50.0 mg/kg/injection, schedule: Q01DX009 (ip), vehicle: Klucel (hydroxypropylcellulose) (HPC)): 97 % of control

Compound: O=C(NCc1ccccc1)c1ccc([N+](=O)[O-])cc1
- T/C [16]: 97 % of control
- T/C [17]: 101 % of control
- T/C [18]: 97 % of control

Compound: Nc1ccccc1SC(CC(=O)c1ccccc1)c1ccc2c(c1)OCO2 (stereo not drawn)
- T/C [13]: 95 % of control
- T/C [14]: 93 % of control
- T/C [15]: 100 % of control

Compound: CCCCCCCCCCNC(=O)C[n+]1cccc(C(=O)N(CC)CC)c1
- T/C [19]: 91 % of control
- T/C [20]: 97 % of control
- T/C [7]: 91 % of control

Compound: CCO[C@@H]1c2cc3c(cc2[C@@H](c2cc(OC)c(O)c(OC)c2)[C@H]2C(=O)OC[C@@H]21)OCO3
- T/C (endpoint: median survival time, dose: 0.65 mg/kg/injection, schedule: Q01DX009 (ip), vehicle: saline with Tween-80): 108 % of control
- T/C (endpoint: median survival time, dose: 1.25 mg/kg/injection, schedule: Q01DX009 (ip), vehicle: saline with Tween-80): 109 % of control
- T/C (endpoint: median survival time, dose: 2.5 mg/kg/injection, schedule: Q01DX009 (ip), vehicle: saline with Tween-80): 106 % of control
- T/C (endpoint: median survival time, dose: 5.0 mg/kg/injection, schedule: Q01DX009 (ip), vehicle: saline with Tween-80): 101 % of control
- T/C (endpoint: median survival time, dose: 10.0 mg/kg/injection, schedule: Q01DX009 (ip), vehicle: saline with Tween-80): 100 % of control and 109 % of control
- T/C (endpoint: median survival time, dose: 20.0 mg/kg/injection, schedule: Q01DX009 (ip), vehicle: saline with Tween-80): 94 % of control
- T/C (endpoint: median survival time, dose: 40.0 mg/kg/injection, schedule: Q01DX009 (ip), vehicle: saline with Tween-80): 97 % of control

Compound: COC(=O)C1(C)CSCCC1=O (stereo not drawn)
- T/C [4]: 107 % of control
- T/C [5]: 96 % of control
- T/C [6]: 96 % of control

Compound: CC(CNCCN)C[Si](C)(C)C (stereo not drawn)
- T/C [19]: 100 % of control
- T/C [20]: 98 % of control
- T/C [7]: 104 % of control

Compound: CC(CN1CCCCC1)C(=O)c1ccc(-c2ccccc2)cc1 (stereo not drawn)
- T/C [7]: 97 % of control
- T/C [8]: 100 % of control
- T/C [13]: 97 % of control

Compound: Nc1ccc(C(=O)O)cc1
- T/C [21]: 95 % of control
- T/C [22]: 100 % of control
- T/C [23]: 101 % of control

Compound: CC12CC=CCC1CCC/C2=N/O (stereo not drawn)
- T/C [21]: 113 % of control
- T/C (endpoint: mean survival time, dose: 100.0 mg/kg/injection, schedule: Q04DX003 (ip), vehicle: acetone): 96 % of control
- T/C [22]: 97 % of control
- T/C (endpoint: mean survival time, dose: 200.0 mg/kg/injection, schedule: Q04DX003 (ip), vehicle: acetone): 98 % of control
- T/C [23]: 103 % of control
- T/C (endpoint: mean survival time, dose: 400.0 mg/kg/injection, schedule: Q04DX003 (ip), vehicle: acetone): 96 % of control

Compound: Cc1cc(=O)[nH]c(=O)[nH]1
- T/C (endpoint: mean survival time, dose: 50.0 mg/kg/injection, schedule: Q01DX001 (ip), vehicle: Klucel (hydroxypropylcellulose) (HPC)): 95 % of control
- T/C (endpoint: mean survival time, dose: 50.0 mg/kg/injection, schedule: Q01DX009 (ip), vehicle: Klucel (hydroxypropylcellulose) (HPC)): 98 % of control
- T/C (endpoint: mean survival time, dose: 100.0 mg/kg/injection, schedule: Q01DX001 (ip), vehicle: Klucel (hydroxypropylcellulose) (HPC)): 104 % of control
- T/C (endpoint: mean survival time, dose: 100.0 mg/kg/injection, schedule: Q01DX009 (ip), vehicle: Klucel (hydroxypropylcellulose) (HPC)): 98 % of control
- T/C (endpoint: mean survival time, dose: 200.0 mg/kg/injection, schedule: Q01DX001 (ip), vehicle: Klucel (hydroxypropylcellulose) (HPC)): 98 % of control
- T/C (endpoint: mean survival time, dose: 200.0 mg/kg/injection, schedule: Q01DX009 (ip), vehicle: Klucel (hydroxypropylcellulose) (HPC)): 102 % of control

Compound: N#CCCn1ccc2ccccc21
- T/C (endpoint: mean survival time, dose: 100.0 mg/kg/injection, schedule: Q01DX009 (ip), vehicle: other): 98 % of control
- T/C (endpoint: mean survival time, dose: 200.0 mg/kg/injection, schedule: Q01DX009 (ip), vehicle: other): 104 % of control
- T/C (endpoint: mean survival time, dose: 400.0 mg/kg/injection, schedule: Q01DX009 (ip), vehicle: other): 98 % of control

Compound: O=C1C(c2ccccc2)CN1C1CCCCC1 (stereo not drawn)
- T/C [10]: 104 % of control
- T/C [11]: 101 % of control
- T/C [12]: 87 % of control

Compound: CN(C)CCC(=O)c1ccco1
- T/C (endpoint: mean survival time, dose: 25.0 mg/kg/injection, schedule: Q01DX001 (ip), vehicle: saline): 104 % of control
- T/C (endpoint: mean survival time, dose: 50.0 mg/kg/injection, schedule: Q01DX001 (ip), vehicle: saline): 95 % of control
- T/C [10]: 97 % of control and 103 % of control

Compound: O=P(O)(c1ccccc1CBr)c1ccccc1CBr
- T/C (endpoint: mean survival time, dose: 75.0 mg/kg/injection, schedule: Q01DX001 (ip), vehicle: saline): 90 % of control

Compound: C/C=C(\C)C(=O)N/N=C\c1cc(Cl)cc(Cl)c1O
- T/C (endpoint: mean survival time, dose: 12.5 mg/kg/injection, schedule: Q01DX009 (ip), vehicle: olive oil, sesame oil, peanut oil): 100 % of control
- T/C (endpoint: mean survival time, dose: 25.0 mg/kg/injection, schedule: Q01DX009 (ip), vehicle: olive oil, sesame oil, peanut oil): 96 % of control
- T/C (endpoint: mean survival time, dose: 50.0 mg/kg/injection, schedule: Q01DX009 (ip), vehicle: olive oil, sesame oil, peanut oil): 94 % of control
- T/C (endpoint: mean survival time, dose: 100.0 mg/kg/injection, schedule: Q01DX009 (ip), vehicle: olive oil, sesame oil, peanut oil): 98 % of control
- T/C (endpoint: mean survival time, dose: 200.0 mg/kg/injection, schedule: Q01DX009 (ip), vehicle: olive oil, sesame oil, peanut oil): 98 % of control
- T/C (endpoint: mean survival time, dose: 400.0 mg/kg/injection, schedule: Q01DX009 (ip), vehicle: olive oil, sesame oil, peanut oil): 100 % of control
